Data reported in patent US12264175B2, “Compositions and methods for capping RNAS” (Verve Therapeutics, Inc., priority 2020, dated 2025).

Columns and labels:
T7 RNA polymerase = T7 RNA polymerase (Escherichia phage T7, UniProt P00573); assay: mRNA capping efficiency at adjusted 5′ end initiator-to-NTP molar ratio; assay type: biochemical; details: FIG. 4
From the text: The amount of capped mRNA produced in an IVT reaction is directly proportional to the ratio of cap to NTPs in the reaction mixture (Stepinski, J. et al., RNA. 2006, 7, 1486-1495). The 5′ end initiator-to-NTP ratio in an IVT reaction impacts the amount of mRNA that becomes capped primarily because cap can compete with NTPs for insertion at the 5′ end of mRNA. A typical initiator-to-NTP ratio for a dinucleotide cap structure is 4:1 and a typical molar initiator-to-NTP ratio for a trinucleotide cap structure is 1:1; where NTP represents either GTP, ATP, CTP, UTP, or modified NTPs such as N1-methyl pseudouridine. At both a 4:1 ratio for a dinucleotide cap and 1:1 ratio for a trinucleotide cap, the resultant mRNA will have a mixture of transcripts of which at least 80% are capped at the 5′ end and up to 20% are uncapped, this is also described as a capping efficiency of 80%. Capping efficiency is the measured amount of capped mRNA divided by the total amount of capped mRNA plus uncapped mRNA. Therefore, trinucleotide caps can be considered more efficient capping compounds than dinucleotide caps since less input cap is required to produce a final mRNA product that contains a similar amount of capped 5′ ends. The ability of trinucleotide caps to produce a high (>90%) capping efficiency at a lower initiator-to-NTP ratio than dinucleotide caps, in some instances, can be attributed to the increased affinity of a trinucleotide cap for the DNA template. In some cases, the optimal cap-to-NTP ratio may vary with the composition of the cap structure, wherein modification of cap structures may affect capping efficiency. […]
The amount of capped mRNA relative to the total amount of mRNA that is present, i.e. capping efficiency, can be measured by numerous methods well known in the art. […]

HeLa lysate = assay: Translation of capped luciferase mRNA in HeLa lysate in vitro translation kit; assay type: biochemical; details: luciferase encoding mRNA with the 5′ end motif, luminescence, FIG. 5
Procedure: HeLa cells are cultured in RPMI with 10% FBS at 37° C. under 5% CO2 atmosphere. Cells are plated into an appropriately sized well plate per manufacturer's recommended seeding conditions. After overnight incubation, cells are checked for monolayer formation and then transfected using a transfection agent such as MessengerMAX. Solution A: the desired amount of luciferase mRNA is diluted in OptiMEM and mixed with Solution B: MessengerMAX in OptiMEM. After mixing solutions A and B, the mixture is incubated at room temperature for 20 minutes, and then added dropwise to each well of cells. The cells are then incubated at 37° C. for 12-72 hours to allow for expression of mRNA into protein. Cells are harvested and prepared for measuring luciferase protein levels per Promega luciferase assay system protocol. […] For example, luciferase encoding mRNA with 5′ end region motif, 1007a, was added to a commercially available HeLa lysate in vitro translation kit to produce luciferase protein. Luciferase protein activity as measured by luminescent light production in the presence of a luciferin substrate, was measured with a luminescence-detecting plate reader. Relative light units measured per this assay are proportional to the amount of luciferase protein translated from mRNA. […]

RIG-I = assay: Immune stimulation of capped mRNA in HEK-Lucia RIG-I cell reporter model; assay type: cell-based
Procedure: LNPs are prepared and administered in vivo to mice as in Example 11(A,B). Blood is collected at appropriate time points, typically at intervals between 1-48 hours post-dose and terminal end point, and processed to serum or plasma per techniques well known in the art. Serum or plasma cytokine and chemokine levels are measured using V-PLEX cytokine and chemokine detection kits. Cytokine and chemokine levels are compared to animals treated with buffer alone as well as pre-dose sampling of the treatment animals. In some instances, the immune stimulation of capped mRNA is assessed after in vitro transfection to reporter cell lines such as HEK-Lucia RIG-I cell reporter model, which produces luciferase signal in the presence of IFN-stimulated response elements such as uncapped mRNA. This cell model is cultured and transfected as described in Example 7, and luciferase activity is measured using a luciferase activity kit and plate reader. It is known in the art that uncapped mRNA produces a RIG-I-dependent IFN immune response, and capped mRNA lessens this immune stimulation. […] The results of this example were compared using mRNA made with a commercially available 5′ end initiator, 1002a, as a reference.

Sequence of T7 RNA polymerase (P00573 whole entry): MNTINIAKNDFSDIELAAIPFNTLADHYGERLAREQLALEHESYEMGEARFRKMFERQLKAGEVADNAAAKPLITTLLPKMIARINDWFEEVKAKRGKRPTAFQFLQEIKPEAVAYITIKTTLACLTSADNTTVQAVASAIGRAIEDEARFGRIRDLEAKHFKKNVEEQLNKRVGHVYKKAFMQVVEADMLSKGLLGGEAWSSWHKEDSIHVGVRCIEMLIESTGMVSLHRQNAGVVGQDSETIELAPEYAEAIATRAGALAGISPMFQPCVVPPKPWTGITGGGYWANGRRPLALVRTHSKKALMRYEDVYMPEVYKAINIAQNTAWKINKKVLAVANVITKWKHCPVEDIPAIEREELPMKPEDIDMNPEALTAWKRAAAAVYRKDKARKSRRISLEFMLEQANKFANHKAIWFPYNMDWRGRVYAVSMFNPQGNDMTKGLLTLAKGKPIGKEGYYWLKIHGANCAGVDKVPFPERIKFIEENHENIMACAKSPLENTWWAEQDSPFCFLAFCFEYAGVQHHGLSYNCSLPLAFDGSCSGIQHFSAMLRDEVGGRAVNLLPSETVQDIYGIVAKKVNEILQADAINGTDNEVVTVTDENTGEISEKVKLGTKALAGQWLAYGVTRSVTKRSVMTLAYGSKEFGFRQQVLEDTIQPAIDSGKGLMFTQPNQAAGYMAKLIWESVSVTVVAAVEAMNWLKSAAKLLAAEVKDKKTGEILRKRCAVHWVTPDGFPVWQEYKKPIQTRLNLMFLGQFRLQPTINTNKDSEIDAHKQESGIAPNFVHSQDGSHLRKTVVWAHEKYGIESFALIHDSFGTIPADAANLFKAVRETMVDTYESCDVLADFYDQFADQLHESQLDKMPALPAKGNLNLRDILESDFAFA

## COC1C(OP([O-])(=S)OCC2OC(n3cnc4c(=O)[nH]c(N)nc43)C(O)C2O)C(COP(=O)(O)OP(=O)(O)OP(=O)(O)OCC2OC(n3c[n+](C)c4c(=O)[nH]c(N)nc43)C(O)C2O)OC1n1cnc2c(N)ncnc21 (centres unmarked) [1007a, m^7G(ppp)Am(ps)G]
T7 RNA polymerase; initiator-to-NTP ratio ranging from 1:1 down to 1:2.5
  capping efficiency: > 90%
T7 RNA polymerase; similar production conditions
  capping efficiency compared to mRNA capped with 1002a: similar
HeLa lysate
  luciferase activity relative to mRNA with initiator 1002a: around 2 x
RIG-I; mRNA with the 5′ end motif, FIG. 8
  RIG-I activity as compared to uncapped mRNA: reduced
RIG-I; reference mRNA made with 1002a
  RIG-I activation as a result of the chemical modifications to the cap structure: did not appear to increase
